Tests used:
[1] = system: A172; experiment: Mitochondrial membrane potential (JC-1), A172; type: cell-based, human; conditions: A172, 1.5 μM, 24 h
Method: The impact of the novel compounds on mitochondrial membrane potential (ΔΨm) was examined. […] In this study, the fluorochrome JC-1 was employed, which, in cells with normally functioning mitochondria, aggregates and accumulates in the hyperpolarized mitochondrial membrane, emitting a red colour. Conversely, when the membrane is damaged, JC-1 breaks down into monomers, emitting green fluorescence. […] For the U-87 MG cell line, these parameters were equal to 54.88 ± 8.36% and 56.13 ± 13.97% of the cell population.
JC-1 (1,1′,3,3′-Tetraethyl-5,5′,6,6′-tetrachloroimidacarbocyanine iodide) (BD Biosciences, San Diego, CA, USA), a lipophilic fluorochrome, was used to evaluate changes in mitochondrial membrane potential. After treatment, cancer cells at a concentration of 1 × 10^6 cells/mL were collected and rinsed twice with PBS. Then, 500 μL JC-1 working solution was added to each sample according to the manufacturer’s protocol. The samples were then incubated for 15 min at 37 °C in a CO2 incubator. After incubation, samples were washed twice with an assay buffer, and 500 μL of each sample was transferred to a BD FACSCanto II flow cytometer (Becton Dickinson Biosciences, San Jose, CA, USA) for analysis, with 10,000 events recorded per sample. Data were analysed using FACSDiva software version 6.1.3 (BD Biosciences Systems, San Jose, CA, USA).

[2] = system: caspase 1; experiment: Caspase 1 activation (FAM FLICA), A172; type: cell-based, human; conditions: 24 h
Method: Given the activation of oxidative stress and the occurrence of apoptotic cell death, we decided to verify whether other cell death pathways are triggered. The level of pyroptosis induction of the newly synthesised compounds MM118 and MM119 was determined by assessing the activation of caspase 1. This method facilitates the identification of cells undergoing pyroptosis by detecting the active form of caspase 1, which is a pivotal mediator in the pyroptotic pathway. The tested compounds were analysed on human A172 and U-87 MG glioblastoma multiforme cell lines using concentrations of 1 μM and 1.5 μM for a period of 24 h. […] Conversely, for compound MM119 in line A172, caspase 1 activation was 12.35 ± 2.00% at a concentration of 1 μM and 21.30 ± 1.57% at a concentration of 1.5 μM. For the U-87 MG line, the values were 12.25 ± 2.16% and 24.50 ± 2.11%, respectively.
The activity of caspase 1, caspase 3/7, caspase 8, and caspase 9 was evaluated through the utilisation of FAM FLICA Caspase Assays (ImmunoChemistry Technologies, Bloomington, MN, USA), in accordance with the established protocols. Following treatment with the compounds, the cells were collected at a concentration of 1 × 10^6 cells/mL, washed twice with cold PBS, and resuspended in 290 μL of PBS. The subsequent step involved the addition of 10 μL of 30X FLICA solution, followed by incubation at 37 °C in the absence of light for one hour. Then, 2 ml of Apoptosis Wash Buffer was added, and the samples were washed twice. A 300 μL aliquot of each sample was transferred to a BD FACSCanto II flow cytometer (Becton Dickinson Biosciences, San Jose, CA, USA), where 10,000 events per sample were recorded. The resulting data was then analysed using FACSDiva software, version 6.1.3 (BD Biosciences Systems, San Jose, CA, USA).

[3] = system: A172 xenografts; experiment: Zebrafish xenograft, A172; type: in vivo; conditions: 10 µM, 48 h, 0.1% DMSO control 4%
Method: (§1) In our study, we used wild-type AB zebrafish embryos obtained from the certified Experimental Medicine Centre (Lublin, Poland). Adult zebrafish were raised at 28.5 °C under 14 h of light and 10 h of the dark cycle and fed in accordance with the guidelines established by the Research Animals Department of the RSPCA. Fertilised eggs were obtained by natural spawning; healthy clutches were processed for study or propagated for line maintenance. Embryos were maintained in the E3 medium (5 mM NaCl, 0.33 mM MgCl2, 0.33 mM CaCl2, 0.17 mM KCl; pH 7.2) at 28.5 °C. The use of animals in scientific research in Europe is governed by the Directive 2010/63/EU of 22 September 2010. […] All procedures in this study were performed on embryos up to 5 dpf.
(§2) A172 and U-87MG cell lines were labelled with Vybrant Did (Invitrogen, Waltham, MA, USA) according to the manufacturer’s protocol. Stained cells were re-suspended in Dulbecco’s modified Eagle’s medium (DMEM) at the final concentration of 1 × 10^7 cells/mL. 24 h post-fertilisation (hpf) zebrafish were manually dechorionated. […]
(§3) Xenograft imaging has been performed before (48 hpf) and after (120 hpf) drugs treatment using an EVOS M5000 Imaging System with the filter Cy5 (excitation: 628 nm; emission: 692 nm). […] Tumour sizes were analysed as the area of labelled tumour cells according Ali et al.[18] using EVOS software.

[4] = system: U-87MG xenografts; experiment: Zebrafish xenograft, U-87 MG; type: in vivo; conditions: U-87 MG zebrafish xenografts, 10 µM, 48 h; 0.1% DMSO control 22%
Method: as §1, §2, §3

SMILES	Decreased ΔΨm (cell population) [1] [%]	Active caspase 1 (cell population) ([2]; A172, 1.0 μM) [%]	Active caspase 1 (cell population) ([2]; A172, 1.5 μM)	average tumour size reduction [3] [%]	tumour size reduction [4] [%]
CCC(CO)NS(=O)(=O)c1ccc(-n2nc(C)c3nc4nnnn4nc32)cc1 (stereo in doubt) [MM118, N-(R)-(1-hydroxy-but-2-yl)-4-[7-methyl-5H-pyrazolo[4,3-e]tetrazolo[1,5-b][1]^,[2]^,[4]triazin-5-yl)]benzenesulfonamide]	70.43 ± 1.44	12.10 ± 1.69	20.38 ± 1.75%	55	51
CCC(CO)NS(=O)(=O)c1ccc(-n2nc(C)c3nc4nnnn4nc32)cc1 (stereo in doubt) [MM119, N-(S)-(1-hydroxy-but-2-yl)-4-[7-methyl-5H-pyrazolo[4,3-e]tetrazolo[1,5-b][1]^,[2]^,[4]triazin-5-yl)]benzenesulfonamide]	64.38 ± 1.90	12.35 ± 2.00	21.30 ± 1.57%	56	56
Cn1nnc2c(C(N)=O)ncn2c1=O [TMZ, temozolomide, reference compound]	20.25 ± 9.20	–	no significant differences	–	–
